Test [1] has as its system ERK1/2 phosphorylation of p90RSK in HT29 cells. As to the kind of experiment: pRSK MSD Assay in HT29 cells. The test is classed as cell-based. To be noted: Homo sapiens, HT-29, read-out: ERK1/ERK2 PRSK MSD HT29 EC50. An outline of the steps: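 Serum-starved HT29 cells (0.1% FBS overnight) treated with test compound for 120 min at 37° C, then lysed with protease and phosphatase inhibitors. Phospho-p90RSK quantified by MSD sandwich immunoassay: RSK capture antibody, phospho-RSK detection antibody plus Sulfo-tagged antibody, electrochemiluminescence read.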

Test [2] concerns HT-29 cells (colorectal adenocarcinoma). Put plainly: Inhibition of cancer cell proliferation, HT-29 (CellTiterGlo, 72 hours). The test is classed as cell-based. To be noted: Homo sapiens. An outline of the steps:
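HT-29 cells seeded at 3000/well, then treated with 3-fold serial dilutions from a 5,000 nM two-fold solution in serum-free RPMI1640, untreated wells as control, for 72 h at 37° C. CellTiterGlo luminescence converted to cell number via a standard curve; GI50 from percent inhibition versus untreated growth.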

The test system of test [3] is HCT116 cells (colorectal carcinoma). As to the kind of experiment: Inhibition of cancer cell proliferation, HCT116 (CellTiterGlo, 72 hours). The format is cell-based. Conditions: Homo sapiens, HCT-116. As to the method: Measurement of Inhibition of Cancer Cell Proliferation (HCT116/Colorectal Carcinoma)
The following protocol used a HCT116 cell line, which cell line is a model for colorectal carcinoma. HCT116 cells were split and 3000 cells in 100 μl of growth medium were added per well of a flat-bottom 96-well plate. A two-fold test compound solution in serum-free RPM1640 was made, starting at 5,000 nM. Then, 3-fold serial dilutions were made across the plate from well 1 to well 11. Well 12, the last well in a row on the plate, was left as untreated control. 100 μl compound solutions were then transferred to the wells, so the total volume of media was 200 μl per well. Plates were returned to a 37° C. incubator, and the cells were cultured for 72 hours. To measure cell proliferation after 72 hours, media was discarded from the plates, 50 μl/well of fresh medium was added, and 50 μl CellTiterGlo solution was added (Promega Cat#G7573). The plate was covered with a dark lid and incubated for 10 min. A white sealing tape was applied to the bottom of the plate, and the plate was read in a luminescence plate reader. […] 50 μl CellTiterGlo was added per well, and the plate was read in a luminescence plate reader after 10 min. The reading was plotted vs. cell number to generate a standard curve and the equation of the curve fit. The compound-treated sample luminescence readings were converted to cell numbers using the curve-fit equation. The percent of inhibition, using untreated control as 100% growth, was then calculated. GI50 was then calculated by GraphPad Prism.
On the technique in general: In ATP-based viability assays light output follows the ATP content of the culture.

The subject of test [4] is A375 cells (malignant melanoma). As to the kind of experiment: Inhibition of cancer cell proliferation, A375 (CellTiterGlo, 72 hours). The format is cell-based. To be noted: Homo sapiens, A-375. An outline of the steps:
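A375 melanoma cells, 3000/well, exposed 72 h at 37 °C to compound in 3-fold serial dilutions (solution added as 2× stock starting at 5,000 nM in serum-free DMEM). CellTiterGlo luminescence converted to cell number via standard curve; % inhibition vs untreated control, GI50 from curve fit.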

The target of test [5] is T1, Erk1 (Homo sapiens, UniProt P27361).
T1 construct: purchased Millipore 14-439
T1 sequence (P27361 whole entry): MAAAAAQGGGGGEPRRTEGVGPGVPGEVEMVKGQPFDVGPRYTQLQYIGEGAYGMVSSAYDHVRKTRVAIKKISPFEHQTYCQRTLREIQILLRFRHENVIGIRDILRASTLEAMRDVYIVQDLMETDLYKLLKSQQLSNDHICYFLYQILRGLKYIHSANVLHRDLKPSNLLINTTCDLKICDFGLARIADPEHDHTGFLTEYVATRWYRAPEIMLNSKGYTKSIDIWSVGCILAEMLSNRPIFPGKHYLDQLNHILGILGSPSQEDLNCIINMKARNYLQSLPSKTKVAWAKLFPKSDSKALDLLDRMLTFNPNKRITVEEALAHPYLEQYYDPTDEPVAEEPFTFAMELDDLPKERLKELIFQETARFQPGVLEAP
As to the kind of experiment: Protein Mass Modification Assay (intact protein MALDI, 60 min, 10-fold excess of compound). The test is classed as binding. As to the method: Protein Mass Modification Assay
Intact protein: Erk1 from Millipore (Cat. No. 14-439) was incubated for 60 min. at room temperature with a 10-fold excess of test compound to protein. 4 μL aliquots of the resulting mixture were diluted with 15 μL of 0.2% TFA prior to micro C4 ZipTipping directly onto the MALDI target using sinapinic acid as the desorption matrix (10 mg/ml in 0.1% TFA:Acetonitrile 50:50, v/v). The centroid mass of the target protein in the control sample was compared with the centroid mass of the target protein incubated with compound. A shift in the centroid mass of the treated protein compared to the untreated protein was divided by the molecular weight of the compound. This number corresponds to the percentage of modified protein after one hour incubation. Results from this assay are reported in Table A under the column “ERK1 Mass Mod (%).”

Test [6] has as its target T2, MEK1 activated ERK1 (Homo sapiens, UniProt P27361).
T2 construct: purchased Millipore (Billerica, Mass.) 14-439-K
As to the kind of experiment: Omnia continuous-read kinase assay for potency against MEK1 activated ERK1. The test is classed as biochemical. To be noted: MEK1 activated ERK1, ATP at KM; read-out: ERK1 Omnia WT ATP KM IC50. An outline of the steps: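 Apparent IC50 came from initial reaction slopes (RFU vs time) plotted against log inhibitor with a variable-slope fit. Reactions were started with ERK1 (4 nM final) added to 50 μM ATP, roughly at its appKM, and 10 μM Sox-conjugated ST17 peptide in 20 mM Tris pH 7.5, 5 mM MgCl2. Fluorescence was monitored every 71 seconds.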

Test [7] relates to ERK1/2 phosphorylation of p90RSK in A375 cells. As to the kind of experiment: Detection of total and phosphor-RSK by MSD ELISA (A375). The format is cell-based. Conditions: Homo sapiens, A-375, read-out: ERK1/ERK2 PRSK A375 EC50. The method in brief: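 A375 cells serum-starved overnight in DMEM/0.1% FBS, then treated 2 h at 37° C with compound (1000× DMSO dilutions into medium). Lysates captured on RSK antibody-coated MSD plates; phospho-RSK (Ser380) and total RSK detected with SulfoTag secondary antibodies by electrochemiluminescence.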
On the technique in general: ELISA stands for enzyme-linked immunosorbent assay.

Test [8] has as its system ERK1/2 phosphorylation of p90RSK in HCT116 cells. Put plainly: Detection of total and phospho-RSK by MSD ELISA (HCT116). Conditions: Homo sapiens, HCT-116, read-out: ERK1/ERK2 PRSK HCT116 EC50. The test is classed as cell-based. An outline of the steps: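 HCT116 cells treated with compound in RPMI/10% FBS for 2 h at 37° C, then lysed. Phospho-RSK (Ser380) and total RSK in lysates measured by MSD sandwich electrochemiluminescence ELISA as a readout of ERK1/2 activity.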

Some results are limits rather than exact numbers.

T2 sequence (P27361 whole entry): as above

As for `C=CC(=O)Nc1cc(OC)ccc1Nc1nc(Nc2cc(C(N)=O)ccc2C)ncc1Cl` [Compound I-237, 3-((4-((2-acrylamido-4-methoxyphenyl)amino)-5-chloropyrimidin-2-yl)amino)-4-methylbenzamide], the EC50 in test [1] was 101 to 500 nM. Further, the results for the GI50 in test [2], in test [3] and in test [4] were less than 100 nM, 501 to 999 nM and less than 100 nM, respectively.

For the compound `C=C(F)C(=O)Nc1ccccc1Nc1nc(N[C@H]2CCCN(C(C)=O)C2)ncc1C(F)(F)F` [Compound I-55, (S)—N-(2-((2-((1-Acetylpiperidin-3-yl)amino)-5-(trifluoromethyl)pyrimidin-4-yl)amino)phenyl)-2-fluoroacrylamide], the EC50 in test [1] was in the range of 101 to 500 nM. The GI50 – broadly, the concentration that inhibits growth by half – in test [2] was less than 100 nM; in test [3], 101 to 500 nM; in test [4] it was less than 100 nM.

Take `C=CC(=O)Nc1cc(C)ccc1Nc1nc(N[C@H]2CCCN(C(=O)CO)C2)ncc1C(F)(F)F` [Compound I-20, (S)—N-(2-((2-((1-(2-Hydroxyacetyl)piperidin-3-yl)amino)-5-(trifluoromethyl)pyrimidin-4-yl)amino)-5-methylphenyl)acrylamide]: the EC50 in test [1] is less than 100 nM. Besides, the GI50 in test [2], in test [3] and in test [4] was less than 100 nM throughout.

Consider `C=CC(=O)Nc1ccccc1Nc1nc(N[C@H]2CCC[C@@H](C(N)=O)C2)ncc1C(F)(F)F` [Compound I-118, (1R,3S)-3-((4-((2-acrylamidophenyl)amino)-5-(trifluoromethyl)pyrimidin-2-yl)amino)cyclohexanecarboxamide], for which the “ERK1 Mass Mod (%)” value in test [5] is listed as “E (a mass modification of ≧70%)”. In test [1], the EC50 was less than 100 nM. Besides, the GI50 in test [2] and in test [4] was 101 to 500 nM throughout.

Take `C=CC(=O)Nc1ccccc1Nc1nc(N[C@H]2CCC[C@@H](C(N)=O)C2)ncc1Cl` [Compound I-120, (1R,3S)-3-((4-((2-acrylamidophenyl)amino)-5-chloropyrimidin-2-yl)amino)cyclohexanecarboxamide]: the “ERK1 Mass Mod (%)” value in test [5] is “E (a mass modification of ≧70%)”. Besides, the EC50 in test [1] was less than 100 nM. The figures for the GI50 in test [2] and in test [4] were less than 100 nM and 101 to 500 nM, respectively.

`C=CC(=O)Nc1ccccc1Nc1nc(N[C@H]2CCCN(C(=O)CO)C2)ncc1Cl` [Compound I-123, (S)—N-(2-((5-chloro-2-((1-(2-hydroxyacetyl)piperidin-3-yl)amino)pyrimidin-4-yl)amino)phenyl)acrylamide]: the EC50 in test [1] is less than 100 nM. Further, the GI50 in test [2], in test [3] and in test [4] was less than 100 nM in each case.

As to `C=CC(=O)Nc1cc(C)ccc1Nc1nc(N[C@H]2CCCN(C(C)=O)C2)ncc1C(F)(F)F` [Compound I-19, (S)—N-(2-((2-((1-Acetylpiperidin-3-yl)amino)-5-(trifluoromethyl)pyrimidin-4-yl)amino)-5-methylphenyl)acrylamide], the EC50 in test [1] is less than 100 nM. Moreover, the GI50 in test [2], in test [3] and in test [4] was less than 100 nM each time.

Turning to `C=CC(=O)Nc1cc(C)ccc1Nc1nc(Nc2cc(OC)ncc2C)ncc1Cl` [Compound I-241, N-(2-((5-chloro-2-((2-methoxy-5-methylpyridin-4-yl)amino)pyrimidin-4-yl)amino)-5-methylphenyl)acrylamide], the EC50 in test [1] is less than 100 nM. In addition, the GI50 was less than 100 nM in test [2], 101 to 500 nM in test [3] and 101 to 500 nM in test [4].

Regarding `C=CC(=O)Nc1cc(C)ccc1Nc1nc(N[C@H]2CCCN(C(=O)CF)C2)ncc1C(F)(F)F` [Compound I-43, (S)—N-(2-((2-((1-(2-Fluoroacetyl)piperidin-3-yl)amino)-5-(trifluoromethyl)pyrimidin-4-yl)amino)-5-methylphenyl)acrylamide], the “ERK1 Mass Mod (%)” value in test [5] is recorded as “E (a mass modification of ≧70%)”. In test [4], the GI50 is less than 100 nM.

As for `C=CC(=O)Nc1cc(Cl)ccc1Nc1nc(Nc2cc(OC)ncc2C)ncc1Cl` [Compound I-248, N-(5-chloro-2-((5-chloro-2-((2-methoxy-5-methylpyridin-4-yl)amino)pyrimidin-4-yl)amino)phenyl)acrylamide], the GI50 was 501 to 999 nM in test [2], greater than 1000 nM in test [3] and 501 to 999 nM in test [4].

As to `CCC(=O)Nc1ccccc1Nc1nc(N[C@H]2CCCN(C(=O)CO)C2)ncc1Cl` [Compound I-311, (S)—N-(2-((5-chloro-2-((1-(2-hydroxyacetyl)piperidin-3-yl)amino)pyrimidin-4-yl)amino)phenyl)propionamide], in test [1], the EC50 lay within 501 to 999 nM. Also, the values for the GI50 in test [2], in test [3] and in test [4] were 501 to 999 nM, greater than 1000 nM and greater than 1000 nM, respectively.

Regarding `C=CC(=O)Nc1ccccc1Nc1nc(N[C@H]2CCCN(C(=O)C=O)C2)ncc1C(F)(F)F` [Compound I-52, (S)—N-(2-((2-((1-(2-Oxoacetyl)piperidin-3-yl)amino)-5-(trifluoromethyl)pyrimidin-4-yl)amino)phenyl)acrylamide], in test [6], the IC50 (in general, the concentration that gives 50% inhibition) lay in the range of 101 to 500 nM. Besides, the results for the GI50 in test [2], in test [3] and in test [4] were 101 to 500 nM, greater than 1000 nM and 101 to 500 nM, respectively.

For `C=CC(=O)Nc1ccccc1Nc1nc(N[C@H]2CCCN(C(C)=O)C2)ncc1C(F)(F)F` [Compound I-10, (S)—N-(2-(2-(1-acetylpiperidin-3-ylamino)-5-(trifluoromethyl)pyrimidin-4-ylamino)phenyl)acrylamide], in test [1], the EC50 is less than 100 nM. Further, the GI50 in test [2], in test [3] and in test [4] was less than 100 nM each time.

Take `C=CC(=O)Nc1ccccc1Nc1nc(Nc2cc(OC)ncc2C)ncc1Cl` [Compound I-240, N-(2-((5-chloro-2-((2-methoxy-5-methylpyridin-4-yl)amino)pyrimidin-4-yl)amino)phenyl)acrylamide]: the EC50 in test [1] is less than 100 nM. Further, the GI50 in test [2] is less than 100 nM; in test [3], 101 to 500 nM; in test [4] it was less than 100 nM.

Consider `C=CC(=O)Nc1cc(C)ccc1Nc1nc(Nc2nc(O)ncc2Cl)ncc1C(F)(F)F` [Compound I-363, N-(2-((2-((5-chloro-2-hydroxypyrimidin-4-yl)amino)-5-(trifluoromethyl)pyrimidin-4-yl)amino)-5-methylphenyl)acrylamide], for which the “ERK1 Mass Mod (%)” value in test [5] is on record as “E (a mass modification of ≧70%)”. The EC50 in test [1], in test [7] and in test [8] was greater than 1000 nM in each case.

The record behind these values is patent US9561228B2 (Celgene Avilomics Research, Inc., priority 2013, dated 2017).
